From US12503440B2, “Nitroxoline derivative, preparation method therefor, and use thereof” (Jiangsu Yahong Meditech Co., Ltd., priority 2020, dated 2025) come the findings set out here.

What all share (format): cell-based
In test [1] the test system is Bladder cancer cell line UM-UC-3. The test is described as follows: Inhibitory activity on cancer cells, CellTiter-Glo viability, 72 h. Conditions: Homo sapiens, UMUC3, UM-UC-3, 72 h. From the text: (§1) • HUVEC (purchased from Allcells Biological Technology (Shanghai) Co., Ltd.); UM-UC-3 (ATCC); LNCaP Clone FGC (ATCC); RM-1 (purchased from Nanjing Cobioer Biosciences Co., Ltd.) 2. Reagents • Endothelial cell complete medium (Allcells, H-004) • Medium RPMI1640 (ATCC, 30-2001) • Medium EMEM (ATCC, 30-2003) • Medium DMEM (Gibco, 12430-054) • Fetal bovine serum (Gibco, 10091148) • Penicillin-streptomycin double anti-body (Gibco, S110JV) • DPBS (Gibco, 14190-144) • CellTiter-Glo® kit (Promega, G7573) • Trypsin (0.25%), phenol red (Gibco, 25200-056) • DMSO (Sigma, D2650) 3. Instruments • Biological safety cabinet (Suzhou Antai Airtech Co., Ltd., BSC-1300A II) • Inverted microscope (Nikon, CKX53) • Automated cell counter (Life Technologies, countess II) • Multifunctional microplate reader (Biotek, H1FM) • Shaker (Hangzhou Allsheng Instruments Co., Ltd., OS-100) • GraphPad Prism 5.0 software • XLFIT 5.3 (Inforstack Shanghai Co., Ltd.) 4. Test Method
(§2) In this test method, the following experiments were carried out in a biological safety cabinet, and the specific steps are as follows: • (1) On the first day, the cells were seeded in a 96-well plate, and the previous medium was poured off. 5 mL of DPBS was added to wash the cells, and then removed by a pipette. Then, 1 mL of trypsin (0.25%) was added, and the plate was placed in a cell culture incubator at 37° C., 5% CO2 for digestion, and taken out after about 2 to 5 minutes. New corresponding medium was added, and pipetted to resuspend the cells evenly, and the cells were then counted with an automated cell counter.
(§3) The digestion was observed using an inverted microscope.
(§4) Regarding to HUVEC, the medium used was endothelial cell complete medium; regarding to UM-UC-3, the medium used was 89v % EMEM+10v % fetal bovine serum+1 v % penicillin-streptomycin double anti-body; regarding to LNcaP Clone FGC, the medium used was 89v % RPM11640+10v % fetal bovine serum+1 v % penicillin-streptomycin double anti-body; and regarding to RM-1, the medium used was 89v % DMEM+10v % fetal bovine serum+1v % penicillin-streptomycin double anti-body. • (2) HUVEC cells were seeded in columns 1 to 11 of a 96-well plate (Corning, Cat. No. 3610) at a density of 2000 cells per well in 100 μL of medium, and the medium free of cell was added to the wells of column 12. The other three types of cells were also seeded, wherein UM-UC-3 and RM-1 cells were seeded at a density of 3000 cells per well, and LNCap Clone FGC cells were seeded at a density of 5000 cells per well. Then, the plate was placed in an incubator at 37° C., 5% CO2 for 24 hours. • (3) On the second day, the compounds of the present invention and the reference drug nitroxoline (obtained according to the preparation method disclosed in the prior art) were diluted in gradient (2.5 folds, started at 100 μmol) to obtain 8 dose points (there were a total of 8 columns of wells; the first column of wells had the highest concentration, the concentration decreased in turn, and the last column of wells had the lowest concentration). 10 uL of the compound diluted in gradient was added to the 100 μL of cells in column 1 to column 10 with an 8-channel pipette. 10 μL of the corresponding medium containing 0.33v % DMSO was added to column 11 and column 12. The plate was incubated in an incubator at 37° C., 5% CO2 for 72 hours (note: column 11 was used as MAX well with cells and no compounds; and column 12 was used as MIN well with no cells and no compounds). • (4) After treating with the compounds of the present invention for 72 hours, the cell viability detection reagents in the above CellTiter-Glo® kit were added to the 96-well plate at 50 μL per well according to the instructions. […]
In general terms: ATP-based viability assays read luminescence as a measure of living cells.

Test [2] deals with Prostate cancer cell line LNcaP Clone FGC. Described as above. Conditions: Homo sapiens.
From the text: as §1, §2, §3, §4

The subject of test [3] is Mouse prostate cancer cell line RM-1. Described as above. Conditions: RM-1, 72 h.
From the text: as §1, §2, §3, §4

The test system of test [4] is Endothelial cell line HUVEC. Nature of the test: Inhibitory activity on cells, CellTiter-Glo viability, 72 h. Conditions: Homo sapiens.
From the text: as §1, §2, §3, §4

Test [5] has as its system Staphylococcus aureus. The test is described as follows: Bacteriostatic activity, micro broth dilution MIC (CLSI). The note with it: 20 hours; for MIC50 / MIC90: clinical strains (methicillin-resistant and sensitive), CAMHB; for MIC50: read-out: Staphylococcus aureus Clinical strain MIC50; for MIC90: read-out: Staphylococcus aureus Clinical strain MIC90; for MIC: standard strain ATCC29213, CAMHB. As to the method: (§5) The purpose of this test is to determine the bacteriostatic activity of the compounds of the present invention against a representative panel of strains (Gram-negative bacteria: […] ATCC 25922, Acinetobacter baumannii ATCC 19606; Gram-positive bacteria: Staphylococcus aureus ATCC29213). Bacteriostatic activity was determined by minimum inhibitory concentration (MIC), MIC50, MIC90. This test was entrusted to Shanghai Junj Lab Co., Ltd. Except for the test drugs, all other test materials were provided by Shanghai Junj Lab Co., Ltd.
(§6) The tested bacteria were several strains of clinically isolated carbapenem-resistant Escherichia coli, several strains of carbapenem-resistant Acinetobacter baumannii, several strains of methicillin-resistant Staphylococcus aureus, and several strains of sensitive Staphylococcus aureus. Duplicate strains isolated from the same patient were eliminated. There were also three quality control strains Escherichia coli ATCC 25922, Acinetobacter baumannii ATCC 19606, and Staphylococcus aureus ATCC 29213. The activity test of each compound was carried out on one or more strains of each of the above test bacteria.
(§7) According to the recommendations of relevant documents of the American Clinical and Laboratory Standards Institute (CLSI), the micro broth dilution method was used to determine the MIC of the compounds of the present invention against clinically isolated strains. The culture solution free of drug was used as the test bacteria positive control, the culture solution free of bacterial solution was used as the drug negative control, and the culture solution free of drug solution and bacterial solution was used as the blank control. • 4.1 Formulation of antibacterial drug: All the compounds of the present invention were dissolved in DMSO. The drug concentration range was 128 mg/L-0.06 mg/L. Specific method: The compounds of the present invention were successively diluted by 1:1 with DMSO to obtain an intermediate series with a range of 25600 mg/L-12.5 mg/L. 30 μL of solution from each tube of the intermediate series of each compound was added to a 3 mL/tube series of single broth tube, and mixed well to obtain an intermediate series with a range of 256 mg/L to 0.125 mg/L. The diluted series solution was added to the drug susceptibility plate line by line, 50 μL of solution per well. All ranges became investigated ranges after being mixed with an equal volume of bacterial solution: 128-0.06 mg/L. • 4.2 Culture medium: The drug susceptibility test used cation adjusted Mueller-Hinton broth (CAMHB). • 4.3 Amount of inoculum: The test bacteria cultured overnight were adjusted to 0.5 McFarland turbidity by the direct colony suspension method, and diluted 100 folds, the final inoculum amount was 10^5 CFU/mL. • 4.4 Culture conditions: The test bacteria were cultured at 35±2° C. for 20 hours in air. 5. Interpretation and Judgment of Results
(§8) The drug susceptibility test results were interpretated by reference to CLSI 2019 edition M100 29th edition criteria.
(§9) The results of drug susceptibility test were statistically analyzed by WHONET version 5.6 software.
(§10) The culture solution free of bacterial solution was used as the drug negative control, and the culture solution free of drug solution and bacterial solution was used as the blank control, wherein no bacteria grew in both solutions.
Background: In broth dilution the organism is exposed to a series of concentrations in liquid medium.

Test [6] relates to Escherichia coli. The test is described as above. Conditions: 20 hours; for MIC50 / MIC90: clinical strains (carbapenem-resistant), CAMHB; for MIC50: read-out: Escherichia coli Clinical strain MIC50; for MIC90: read-out: Escherichia coli Clinical strain MIC90; for MIC: standard strain ATCC25922, CAMHB. How it is done:
as §5, §6, §7, §8, §9, §10

The test system of test [7] is Acinetobacter baumannii. The description is as above. Conditions: 20 hours; for MIC50 / MIC90: clinical strains (carbapenem-resistant), CAMHB; for MIC50: read-out: Acinetobacter baumannii Clinical strain MIC50; for MIC90: read-out: Acinetobacter baumannii Clinical strain MIC90; for MIC: standard strain ATCC19606, CAMHB. How it is done:
as §5, §6, §7, §8, §9, §10

As a reminder, the IC50 is the concentration that inhibits the measured activity by half. Usually MIC50 stands for the lowest concentration that inhibits either 50% of growth or 50% of the strains tested, depending on the study. The MIC90 is the lowest concentration that inhibits either 90% of growth or 90% of the strains tested, depending on the study. The term MIC denotes the least concentration at which growth counts as inhibited. Low values mean inhibition by little substance, high ones a need for much substance.

In brackets after ≈: the same amount, converted by molar mass.

In the case of `O=[N+]([O-])c1ccc(O)c2nccc(Cl)c12` [Example 2, 4-chloro-5-nitroquinolin-8-ol], the IC50 in test [1] is 2 µM; in test [2], 4.9 µM; in test [3], 3.1 µM; in test [4] it was 3 µM. For the same compound, the MIC50 in test [5] was 4 µg/mL (≈ 17.8 µM); in test [6], 8 µg/mL (≈ 35.6 µM); in test [7], 4 µg/mL (≈ 17.8 µM). The MIC90 stood at 4 µg/mL (≈ 17.8 µM) in test [5], 8 µg/mL (≈ 35.6 µM) in test [6] and 8 µg/mL (≈ 35.6 µM) in test [7]. For the same compound, it took 8 µg/mL (≈ 35.6 µM) to inhibit growth in test [6] (MIC).
`O=[N+]([O-])c1ccc(O)c2nccc(N3CCOCC3)c12` [Example 5, 4-morpholino-5-nitroquinolin-8-ol]: the half-maximal inhibitory concentration (IC50) in test [1] and in test [2] was 5.5 µM each time.
In the case of `O=[N+]([O-])c1ccc(O)c2nccc(-c3ccccc3)c12` [Example 9, 5-nitro-4-phenylquinolin-8-ol], the IC50 in test [1] was determined as 0.5 µM; in test [2] it was 1.7 µM; in test [3], 1 µM; in test [4], 1.3 µM. For the same compound, the MIC50 in test [5] was determined as 4 µg/mL (≈ 15 µM); in test [6], 128 µg/mL (≈ 481 µM); in test [7], 128 µg/mL (≈ 481 µM). Besides, the values for the MIC90 in test [5], in test [6] and in test [7] were 8 µg/mL (≈ 30 µM), 128 µg/mL (≈ 481 µM) and 128 µg/mL (≈ 481 µM), respectively. Besides, the MIC in test [5] came out at 4 µg/mL (≈ 15 µM).
In test [1], `O=[N+]([O-])c1ccc(O)c2nccc(N3CCNCC3)c12` [Example 10, 5-nitro-4-(piperazin-1-yl)quinolin-8-ol] showed an IC50 of 3 µM.
Consider `CC1CCCCN1c1ccnc2c(O)ccc([N+](=O)[O-])c12` (stereo not shown) [Example 13, 4-(2-methylpiperidin-1-yl)-5-nitroquinolin-8-ol], for which the IC50 stood at 1.6 µM in test [1], 1.2 µM in test [2], 2 µM in test [3] and 2.5 µM in test [4].
Take `O=[N+]([O-])c1ccc(O)c2nccc(-c3ccncc3)c12` [Example 14, 5-nitro-4-(pyridin-4-yl)quinolin-8-ol]: the half-inhibitory concentration (IC50) amounted to 5 µM in test [1] and 3.8 µM in test [2].
As for `COc1ccnc2c(O)ccc([N+](=O)[O-])c12` [Example 16, 4-methoxy-5-nitroquinolin-8-ol], the IC50 in test [1] amounted to 1.5 µM; in test [2], 1.8 µM; in test [3], 2.1 µM. The MIC50 in test [5] was 4 µg/mL (≈ 18.2 µM); in test [6] it was 32 µg/mL (≈ 145 µM); in test [7] it was 32 µg/mL (≈ 145 µM). Besides, the MIC90 in test [5] worked out at 4 µg/mL (≈ 18.2 µM); in test [6], 32 µg/mL (≈ 145 µM); in test [7], 32 µg/mL (≈ 145 µM). Moreover, the minimal inhibitory concentration (MIC) in test [5] turned out to be 4 µg/mL (≈ 18.2 µM); in test [6], 32 µg/mL (≈ 145 µM); in test [7], 32 µg/mL (≈ 145 µM).
As for `O=[N+]([O-])c1ccc(O)c2nccc(-c3cccnc3)c12` [Example 17, 5-nitro-4-(pyridin-3-yl)quinolin-8-ol], the figures for the IC50 in test [1], in test [2] and in test [3] were 4.9 µM, 4.8 µM and 2.8 µM, respectively.
Consider `O=[N+]([O-])c1ccc(O)c2nccc(C3CC3)c12` [Example 19, 4-cyclopropyl-5-nitroquinolin-8-ol], for which the 50% inhibitory concentration (IC50) in test [1] came to 2.4 µM; in test [2], 1.9 µM; in test [3], 0.9 µM; in test [4], 1.3 µM. The MIC50 turned out to be 2 µg/mL (≈ 8.69 µM) in test [5], 8 µg/mL (≈ 34.7 µM) in test [6] and 8 µg/mL (≈ 34.7 µM) in test [7]. In addition, the values for the MIC90 in test [5], in test [6] and in test [7] were 4 µg/mL (≈ 17.4 µM), 16 µg/mL (≈ 69.5 µM) and 16 µg/mL (≈ 69.5 µM), respectively. The MIC amounted to 4 µg/mL (≈ 17.4 µM) in test [5], 8 µg/mL (≈ 34.7 µM) in test [6] and 16 µg/mL (≈ 69.5 µM) in test [7].
Take `CCOC(=O)N1CCN(c2ccnc3c(O)ccc([N+](=O)[O-])c23)CC1` [Example 22, ethyl 4-(8-hydroxy-5-nitroquinolin-4-yl)piperazine-1-carboxylate]: the concentration for half-maximal inhibition (IC50) in test [1] is 4 µM; in test [2], 2.7 µM; in test [3], 2.7 µM; in test [4], 3 µM.
Take `O=[N+]([O-])c1ccc(O)c2ncccc12` [Nitroxoline, 5-nitro-8-hydroxyquinoline]: the half-maximal inhibitory concentration (IC50) in test [1] is 9.2 µM; in test [2] it was 5.1 µM; in test [3], 4.3 µM; in test [4], 4.5 µM.
